From US20130244995A1, “CALCIUM-SENSING RECEPTOR-ACTIVE COMPOUNDS” (LEO PHARMA A/S, priority 2010, published 2013)
pEC50: −log10 of the molar value.

What follows are molecules tested against T1, human CaSR (Homo sapiens, UniProt P41180) (assay: Functional whole cell assay (modulation of human CaSR), IP1 accumulation in CHO-K1 cells). Details: CHO-K1 cells stably expressing human CaSR, final Ca2+ 1.9 mM, IP1 (IP-One htrf).
T1 sequence (P41180 20-1078): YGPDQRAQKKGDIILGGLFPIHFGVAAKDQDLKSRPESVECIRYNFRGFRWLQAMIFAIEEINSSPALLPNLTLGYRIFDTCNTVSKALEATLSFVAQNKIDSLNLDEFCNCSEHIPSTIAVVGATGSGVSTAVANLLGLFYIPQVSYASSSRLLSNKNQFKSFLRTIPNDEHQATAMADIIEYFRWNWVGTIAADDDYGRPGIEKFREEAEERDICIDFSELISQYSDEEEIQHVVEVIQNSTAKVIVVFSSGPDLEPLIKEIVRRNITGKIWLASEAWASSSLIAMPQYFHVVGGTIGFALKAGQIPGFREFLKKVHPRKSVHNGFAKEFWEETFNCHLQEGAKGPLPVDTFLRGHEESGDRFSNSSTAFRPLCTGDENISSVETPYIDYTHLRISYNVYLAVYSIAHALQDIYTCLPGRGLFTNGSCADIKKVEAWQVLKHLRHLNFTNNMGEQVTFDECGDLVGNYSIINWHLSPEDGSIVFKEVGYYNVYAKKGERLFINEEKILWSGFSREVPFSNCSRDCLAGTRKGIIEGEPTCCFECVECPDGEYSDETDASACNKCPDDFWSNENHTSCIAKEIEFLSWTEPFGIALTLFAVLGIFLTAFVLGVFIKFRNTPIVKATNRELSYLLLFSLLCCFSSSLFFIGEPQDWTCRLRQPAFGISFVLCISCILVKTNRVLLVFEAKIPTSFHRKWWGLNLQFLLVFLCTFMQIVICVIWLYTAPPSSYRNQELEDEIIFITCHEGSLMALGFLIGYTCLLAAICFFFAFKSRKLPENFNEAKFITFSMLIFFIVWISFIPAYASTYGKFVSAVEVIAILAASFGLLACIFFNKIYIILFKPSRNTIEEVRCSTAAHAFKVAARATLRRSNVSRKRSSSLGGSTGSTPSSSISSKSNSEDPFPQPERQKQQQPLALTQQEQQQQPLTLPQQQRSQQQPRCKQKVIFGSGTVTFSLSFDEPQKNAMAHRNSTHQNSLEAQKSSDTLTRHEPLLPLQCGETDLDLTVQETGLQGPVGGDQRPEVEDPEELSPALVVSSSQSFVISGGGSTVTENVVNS
Type: cell-based
Text: The assay investigates a compound's functional ability to act as a biological positive modulator on the human CaSR. Activation of the receptor expressed on CHO-K1 cells is detected through the G alpha q pathway, the activation of phospholipase C and the accumulation of intracellular inositol phosphate (IP) as described earlier [Sandrine Ferry, Bruno Chatel, Robert H. Dodd, Christine Lair, Danielle Gully, Jean-Pierre Maffrand, and Martial Ruat. Effects of Divalent Cations and of a Calcimimetic on Adrenocorticotropic Hormone Release in Pituitary Tumor Cells. Biological and Biophysical Research Comm., 238, 866-873 (1997)]. The human CaSR is stably expressed on a CHO-K1 cell clone, stimulated with a basal level of calcium and challenged with the tested compound. The level of IP1 is determined using the IP-One Terbium htrf kit (Cisbio, France). CHO-K1 cells not transfected with the CaSR fail to elicit an IP1 response upon calcium and/or compound stimulation.
The ORF coding for the human CaSR (genebank: NM_000388) was acquired from Invitrogen Corp, USA and subsequently cloned into the mammalian expression vector pCDA3.1.
CHO-K1 cells were transfected using Lipofectamine according to manufacturer's protocol (400.000 cells/well were seeded in a 6-well plate and transfected after 24 hours using 2 μg DNA and 5 μl lipofectamine). After another 24 hours the cells were detached, seeded and subjected to 1mg/ml of G-418. Following 7 days growth single clones were picked, the CaSR expression evaluated using the 5C10 antibody against CaSR, the clones with the highest expression were selected and tested for functional response. The preferred clone was cultured according to standard procedures described in ATCC (American Type Culture Collection) protocols for CHO-K1 with the addition of 500 μg/ml G-418.
On the assay day, cells were thawed, harvested and resuspended to 4*10^6 cells/ml in stimulation buffer (containing: Hepes 10mM, MgCl2 0.5mM, KCl 4.2 mM, NaCl 146 mM, glucose 5.5 mM, LiCl 50 mM, BSA 0.5% at pH 7.4). Ten μl cell solution was pipetted into wells of a white 384-well plate (Perkin Elmer Optiplate) containing 2 μl compound diluted in assay buffer (containing: Hepes 10 mM, MgCl2 0.5mM, KCl 4.2mM, NaCl 146mM, glucose 5.5 mM, LiCl 50 mM, CaCl2 11.4 mM at pH 7.4), resulting in a final Ca^2+ concentration of 1.9 mM. After compound stimulation for 1 hour at 37° C. and 15 min at room temperature, 10 ul of IP-One assay detection reagent (prepared as described by the IP-One assay kit manufacturer) was added and the plate was incubated for another 1 hour at room temperature. Finally the plate was read using a Perkin Elmer EnVision, according to the protocol supplied by the IP-One assay kit manufacturer. The FRET ratio was calculated by dividing the 665 nm emission signal with that of the 615 nm.
The molar concentration of a compound that produces 50% of the maximum agonistic response (the […] value) is calculated according to the equation “General sigmoidal curve with Hill slope, a to d” (Equation 1). This model describes a sigmoidal curve with an adjustable baseline. The equation can be used to fit curves where response is either increasing or decreasing with respect to the independent variable, X. […]
y=(a−d)/(1+(x/c)̂b)+d Equation 1. x=concentration of tested compound […]
a=min response as compound concentration approaches 0 d=max response as concentration of tested compound is increasing […]
b=Hill coefficient or curve slope
Assay results using compounds of the present invention indicate that compounds of the present invention are potent modulators of CaSR, thus making them potentially useful in the treatment of diseases related to kidneys or bones.

Compared with `COc1cc([C@@H](C)N[C@H]2CC[C@@H](c3ccc(CC(=O)NCCNS(C)(=O)=O)cc3)C2)ccc1F` [Compound 102, 2-[4-[(1R,3S)-3-[[(1R)-1-(4-Fluoro-3-methoxy-phenyl)ethyl]amino]-cyclopentyl]phenyl]-N-[2-(methanesulfonamido)ethyl]acetamide; formic acid], `COc1cc([C@@H](C)N[C@H]2CC[C@@H](c3ccc(CC(=O)NCCS(N)(=O)=O)cc3)C2)ccc1F` [Compound 103, 2-[4-[(1R,3S)-3-[[(1R)-1-(4-Fluoro-3-methoxy-phenyl)ethyl]amino]-cyclopentyl]phenyl]-N-(2-sulfamoylethyl)acetamide; formic acid] is higher in pEC50: 6.00 to 6.70 for the first, greater than 6.70 for the second. The second is the more potent here.

`C[C@@H](N[C@H]1CC[C@@H](c2ccc(CC(=O)NCCS(N)(=O)=O)cc2)C1)c1cccc2c1OCO2` [Compound 104, 2-[4-[(1R,3S)-3-[[(1R)-1-(1,3-Benzodioxol-4-yl)ethyl]amino]-cyclo-pentyl]-phenyl]-N-(2-sulfamoylethyl)acetamide] and `CCOc1cccc([C@@H](C)N[C@H]2CC[C@@H](c3ccc(CC(=O)NCCS(N)(=O)=O)cc3)C2)c1` [Compound 106, 2-[4-[(1R,3S)-3-[[(1R)-1-(3-Ethoxyphenyl)ethyl]amino]cyclopentyl]phenyl]-N-(2-sulfamoylethyl)acetamide] cannot be ordered by pEC50: greater than 6.70 for the first, greater than 6.70 for the second.

`COc1cc([C@@H](C)N[C@H]2CC[C@@H](c3ccc(CC(=O)NCCNCCO)cc3)C2)ccc1F` [Compound 108, 2-[4-[(1R,3S)-3-[[(1R)-1-(4-Fluoro-3-methoxy-phenyl)ethyl]amino]-cyclopentyl]phenyl]-N-[2-(2-hydroxyethylamino)ethyl]acetamide] and `COc1cc([C@@H](C)N[C@H]2CC[C@@H](c3ccc(CC(=O)N4CC(O)C4)cc3)C2)ccc1F` [Compound 109, 2-[4-[(1R,3S)-3-[[(1R)-1-(4-Fluoro-3-methoxy-phenyl)ethyl]amino]-cyclopentyl]phenyl]-1-(3-hydroxyazetidin-1-yl)ethanone] cannot be ordered by pEC50: greater than 6.70 for the first, greater than 6.70 for the second.

`COc1cc([C@@H](C)N[C@H]2CC[C@@H](c3ccc(CC(=O)N4CCCNCC4)cc3)C2)ccc1F` [Compound 110, 1-(1,4-Diazepan-1-yl)-2-[4-[(1R,3S)-3-[[(1R)-1-(4-fluoro-3-methoxy-Phenyl)ethyl]amino]cyclopentyl]phenyl]ethanone] and `COc1cc([C@@H](C)N[C@H]2CC[C@@H](c3ccc(CC(=O)N4CCC(N)CC4)cc3)C2)ccc1F` [Compound 112, 1-(4-Amino-1-piperidyl)-2-[4-[(1R,3S)-3-[[(1R)-1-(4-fluoro-3-methoxy-phenyl)ethyl]amino]cyclopentyl]phenyl]ethanone] cannot be ordered by pEC50: greater than 6.70 for the first, greater than 6.70 for the second.
